# Values quoted from earlier work in PubChem BioAssay AID1259409 (Chemical Carcinogenesis Research Information System (CCRIS), 2018).
# System: rodent chemically induced tumor inhibition, incidence and multiplicity
# Experiment: CCRIS tumor inhibitor studies
# Conditions: for tumour outcome (control, treated, inhibition, significance): Promoter: NONE USED; for outcome: Carcinogen: 4-NITROQUINOLINE 1-OXIDE [56-57-5], Route [Inhibitor]: ORAL (DIET), Dose [Carcinogen]: 20 PPM FOR 8 WKS STARTING AT 7 WKS OF AGE (STUDY DURATION: 32 WKS)
compound,measurement,setting,value
Nc1nc(-c2ccccc2)c(Br)c(=O)[nH]1,"tumour outcome (control, treated, inhibition, significance)","Carcinogen: N-[4-(5-NITRO-2-FURYL)-2-THIAZOLYL]FORMAMIDE, 24554-26-5, Dose [Inhibitor]: 200 MG/KG IN CARBOXYMETHYL-CELLULOSE, POLYSORBATE 80, NACL AND BENZYL ALCOHOL, 2/WK BEGINNING ON DAY 30 OF CARCINOGEN TR, Route [Inhibitor]: INTRAGASTRIC, Species: MOUSE, Strain/Sex: C3H/FEMALE, Target Tissue: Type of Lesion: BLADDER: TRANSITIONAL CELL CARCINOMA, Dose [Carcinogen]: 0.13% IN DIET FOR 192 D","24/39 (62%), 6/43 (14%), 77%, p=0.0001"
same,"tumour outcome (control, treated, inhibition, significance)","Carcinogen: N-[4-(5-NITRO-2-FURYL)-2-THIAZOLYL]FORMAMIDE, 24554-26-5, Dose [Inhibitor]: 200 MG/KG IN CARBOXYMETHYL-CELLULOSE, POLYSORBATE 80, NACL AND BENZYL ALCOHOL, 2/WK BEGINNING ON DAY 30 OF CARCINOGEN TR, Route [Inhibitor]: INTRAPERITONEAL, Species: MOUSE, Strain/Sex: C3H/FEMALE, Target Tissue: Type of Lesion: BLADDER: TRANSITIONAL CELL CARCINOMA, Dose [Carcinogen]: 0.13% IN DIET FOR 192 D","18/22 (82%), 5/9 (56%), 32%, p<0.2"
same,"tumour outcome (control, treated, inhibition, significance)","Carcinogen: N-[4-(5-NITRO-2-FURYL)-2-THIAZOLYL]FORMAMIDE, 24554-26-5, Dose [Inhibitor]: 200 MG/KG IN CARBOXYMETHYL-CELLULOSE, POLYSORBATE 80, NACL AND BENZYL ALCOHOL, 2/WK BEGINNING ON DAY 150 OF CARCINOGEN T, Route [Inhibitor]: INTRAPERITONEAL, Species: MOUSE, Strain/Sex: C3H/FEMALE, Target Tissue: Type of Lesion: BLADDER: TRANSITIONAL CELL CARCINOMA, Dose [Carcinogen]: 0.13% IN DIET FOR 192 D","18/22 (82%), 17/19 (89%), -8%, p=0.489"
C=C(C)[C@@H](CC=C(C)C)CC12C[C@@H](CC=C(C)C)C(C)(C)C(CC=C(C)C)(C(=O)/C(=C(\O)c3ccc(O)c(O)c3)C1=O)C2=O (stereo partly drawn),outcome,"Dose [Inhibitor]: 0, 100, 500 PPM FOR 8 WKS STARTING AT 6 WKS OF AGE TO 1 WK AFTER CARCINOGEN EXPOSURE (STUDY DURATION: 32 WKS), Dose [Inhibitor]: 0, 100, 500 PPM FOR 8 WKS STARTING AT 6 WKS OF AGE TO 1 WK AFTER CARCINOGEN EXPOSURE (STUDY DURATION: 32 WKS), Species: RAT, Strain/Sex: F344/MALE (?,26)/(?,16), Target Tissue: Type of Lesion: TONGUE: SQUAMOUS CELL CARCINOMA","(13/26) 50%; (2/16) 12.5%, 75%, p<0.02; (1/16) 6.3%, 87%, p<0.005"
same,outcome,"Dose [Inhibitor]: 0, 100, 500 PPM FOR 8 WKS STARTING AT 6 WKS OF AGE TO 1 WK AFTER CARCINOGEN EXPOSURE (STUDY DURATION: 32 WKS), Dose [Inhibitor]: 0, 100, 500 PPM FOR 8 WKS STARTING AT 6 WKS OF AGE TO 1 WK AFTER CARCINOGEN EXPOSURE (STUDY DURATION: 32 WKS), Species: RAT, Strain/Sex: F344/MALE (?/26)/(?,16), Target Tissue: Type of Lesion: TONGUE: PAPILLOMA","(4/26) 15.4%; (1/16) 6.3%, 59.1%; (1/16) 6.3%, 59.1%"
same,outcome,"Dose [Inhibitor]: 100, 500 PPM STARTING 1 WK AFTER CARCINOGEN FOR 22 WKS (STUDY DURATION: 32 WKS), Species: RAT, Strain/Sex: F344/MALE (?,26)/(?,15), Target Tissue: Type of Lesion: TONGUE: PAPILLOMA","(4/26) 15%; (3/15) 20%, -30%; (2/15) 13%, 14%"
same,outcome,"Dose [Inhibitor]: 100, 500 PPM STARTING 1 WK AFTER CARCINOGEN FOR 22 WKS (STUDY DURATION: 32 WKS), Species: RAT, Strain/Sex: F344/MALE (?,26)/(?,15), Target Tissue: Type of Lesion: TONGUE: SQUAMOUS CELL CARCINOMA","(13/26) 50%; (1/15) 6.7%, 87%, p<0.05; (0/15) 0%, 100%, p<0.001"
CCOC(=O)c1ccc(/C=C(\C)c2ccc3c(c2)C(C)(C)CCC3(C)C)cc1,"tumour outcome (control, treated, inhibition, significance)","Carcinogen: 7,12-DIMETHYLBENZ[A]ANTHRACENE, 57-97-6, Dose [Inhibitor]: 0, 24 UG/KG IN ARACHIS OIL (5 ML/KG) REDUCED TO 16 UG/KG AFTER 4 WK 5/WK BEGINNING 1 D POST CARCINOGEN DOSE (STUDY DURAT, Route [Inhibitor]: GAVAGE, Species: RAT, Strain/Sex: SPRAGUE-DAWLEY/FEMALE, Target Tissue: Type of Lesion: MAMMARY GLAND: TUMOR, Dose [Carcinogen]: 15 MG IN ARACHIS OIL ONCE AT 50 D OF AGE","96%, 72%, 25%, not calculated"
